The values below come from article PMC10733197, “Utilization of Rosuvastatin and Endogenous Biomarkers in Evaluating the Impact of Ritlecitinib on BCRP, OATP1B1, and OAT3 Transporter Activity” (Pharmaceutical Research, 2023).

The target in one data set is T1, OATP1B3 (Homo sapiens, UniProt Q9NPD5).
T1 construct: expressed in transfected cells; host or cells: HEK293
T1 sequence (Q9NPD5 1-702): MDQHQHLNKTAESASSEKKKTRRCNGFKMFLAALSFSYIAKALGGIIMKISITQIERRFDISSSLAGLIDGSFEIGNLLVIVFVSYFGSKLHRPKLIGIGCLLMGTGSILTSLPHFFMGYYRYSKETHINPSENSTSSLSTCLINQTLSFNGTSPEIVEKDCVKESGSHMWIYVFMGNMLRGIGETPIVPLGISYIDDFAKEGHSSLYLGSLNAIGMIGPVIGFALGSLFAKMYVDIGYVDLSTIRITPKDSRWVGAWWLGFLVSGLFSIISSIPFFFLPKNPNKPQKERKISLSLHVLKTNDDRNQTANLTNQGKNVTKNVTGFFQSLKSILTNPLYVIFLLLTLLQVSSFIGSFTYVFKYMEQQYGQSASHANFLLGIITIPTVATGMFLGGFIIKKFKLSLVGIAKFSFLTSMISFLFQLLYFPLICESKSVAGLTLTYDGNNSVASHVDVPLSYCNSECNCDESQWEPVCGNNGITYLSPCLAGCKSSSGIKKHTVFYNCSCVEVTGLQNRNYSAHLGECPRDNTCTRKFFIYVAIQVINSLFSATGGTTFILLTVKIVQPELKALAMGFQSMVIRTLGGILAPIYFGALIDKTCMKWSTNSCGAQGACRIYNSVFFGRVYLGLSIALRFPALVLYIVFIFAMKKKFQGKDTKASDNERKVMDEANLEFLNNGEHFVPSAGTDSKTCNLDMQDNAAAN
The data set is described as follows: OATP1B3-mediated CP-I uptake inhibition in transfected HEK293 cells. The class given is cell-based. On the procedure: Sources of human embryonic kidney (HEK) 293 cells expressing individual transfected human solute carriers (SLC), test substrates, and cell culture reagents, as well as detailed cell culture methods, incubations, and sample processing, have been described previously. SLC included hepatic OATP1B1, OATP1B3, and renal OAT1 and OAT3. […] Likewise, the uptake of non-labeled rosuvastatin (Biosynth, San Diego, CA) at 0.3—0.5 µM was determined for OATP1B1 and OATP1B3 at 1—3 min, and CP-I (Frontier Specialty Chemicals, Logan, UT) at 0.1 µM was determined for OATP1B1 and OATP1B3 at 10 min [14].
(§1) In all cases, ritlecitinib (0.018 to 1000 µM) and metabolite M2 (0.018 to 300 µM) was tested over a wide range of final concentrations dissolved in dimethyl sulfoxide (the final concentration of dimethyl sulfoxide in the assays was 1% v/v). For each transporter, the IC50 was estimated using a four-parameter logistic equation (Eq. 1) using GraphPad Prism software (GraphPad Software Inc, La Jolla, CA).1 %UptakeActivity=Bottom+(Top-Bottom)/1+10^(LogIC50-inhib*HillSlope)
Uptake of CP-I was determined by analysis of the in vitro assay samples using an optimized LC-high resolution mass spectrometry (HRMS) method. In brief, dried samples were reconstituted in 150 µL of 0.1% formic acid and analyzed by LC-HRMS. Analyte separation and detection was achieved using a Shimadzu Nexera high performance LC system (Shimazdu Scientific, MA, USA) coupled to a Sciex API-6600 Q-TOF (time of flight) mass spectrometer with a Turbo IonDrive source (Sciex Corporation, MA, USA). Chromatographic separation was achieved using a Waters Acquity BEH C18 1.7µ 2.1 mm x 100 mm column and a binary mobile phase system consisting of 0.1% v/v formic acid and 0.1% v/v formic acid in acetonitrile, as mobile phase A and B, respectively. The column temperature was held at 60 °C and the flow rate was 0.55 mL/minute. The gradient program had initial conditions of 5% B which was held for 0.9 min, followed by a linear ramp to 95% B over 5.1 min, a hold for 1.0 min, and a return to starting conditions over 0.1 min with re-equilibration for 0.9 min (total run time of 8.0 min). Analyte detection was achieved using an API-6600 Q T-OF mass spectrometer with electrospray ionization (ESI). The mass spectrometer was operated in both TOF-MS and TOF-MS/MS mode with data collected over a 60 to 670 dalton mass range. TOF-MS/MS data were collected in the high-resolution mode. Quantification of CP-I levels was assessed using targeted TOF-MS/MS data with accumulation times of 150 and 35 ms, respectively, for CP-I and the internal standard (ISTD) verapamil. Data were processed using the MultiQuant software package using the targeted mass-to-charge transitions of 328.1 to 268.1201 ± 0.02 daltons and 238.1094 ± 0.02 daltons (summed ions) for CP-I, and 455.2 to 165.0907 ± 0.02 daltons for the ISTD (verapamil), to generate analyte/ISTD area ratios.

For another data set, the target named is T2, BCRP (Homo sapiens, UniProt Q9UNQ0).
T2 sequence (Q9UNQ0 1-655): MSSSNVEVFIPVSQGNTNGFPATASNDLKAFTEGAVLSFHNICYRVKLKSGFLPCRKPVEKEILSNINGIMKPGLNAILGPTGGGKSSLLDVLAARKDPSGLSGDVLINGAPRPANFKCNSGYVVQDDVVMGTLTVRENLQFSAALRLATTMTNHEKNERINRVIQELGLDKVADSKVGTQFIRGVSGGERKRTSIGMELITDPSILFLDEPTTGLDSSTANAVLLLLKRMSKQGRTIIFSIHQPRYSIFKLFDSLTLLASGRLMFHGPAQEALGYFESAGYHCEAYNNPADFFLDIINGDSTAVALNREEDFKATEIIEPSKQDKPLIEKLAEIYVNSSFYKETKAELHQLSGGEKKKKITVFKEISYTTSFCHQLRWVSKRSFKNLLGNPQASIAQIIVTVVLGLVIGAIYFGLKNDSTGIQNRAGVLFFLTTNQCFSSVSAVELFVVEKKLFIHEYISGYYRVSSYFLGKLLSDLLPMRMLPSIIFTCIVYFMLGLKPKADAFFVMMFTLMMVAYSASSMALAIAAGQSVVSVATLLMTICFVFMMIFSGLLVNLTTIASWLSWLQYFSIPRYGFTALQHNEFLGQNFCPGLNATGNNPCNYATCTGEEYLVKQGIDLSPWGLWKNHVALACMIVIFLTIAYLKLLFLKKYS
Nature of the data set: BCRP inhibition in BCRP-expressing membrane vesicles with rosuvastatin as substrate. The class given is biochemical. The conditions noted are these: for [I]2/IC50 ratio (G-value): ritlecitinib 200 mg, cutoff = 10. As for the experimental part: As described previously, BCRP inhibition by ritlecitinib was measured using BCRP-expressing membrane vesicles with non-labeled rosuvastatin as substrate.
as §1

For `C=CC(=O)N1C[C@H](Nc2ncnc3[nH]ccc23)CC[C@@H]1C` [Ritlecitinib, ritlecitinib], the “Triggers Drug Interaction Cutoff” value was “No” at OATP1B3 (OATP1B3 (CP-I)) and “Yes” at BCRP ([I]2/IC50 cutoff = 10). The R-value on OATP1B3 (OATP1B3 (CP-I), 1 + (Imax,inlet,u/IC50), cutoff 1.1 (FDA), 1.04 (EMA)) is on record as less than 1.03. Also, the “Fraction Inhibited” value at OATP1B3 (OATP1B3 (CP-I), Imax,inlet,u/(Imax,inlet,u + IC50) (Eq. 1)) is less than 0.03. Besides, the IC50 against OATP1B3 (hepatic OATP1B3, CP-I 0.1 µM as substrate, 10 min, HEK293) was greater than 1000 µM; against BCRP (intestinal BCRP, RSV 0.2 µM as substrate, membrane vesicles, mean ± SD, n = 3) it was 27 ± 2 µM. The inhibition at 10 min, 1000 µM at OATP1B3 (human, HEK293 cells transfected with OATP1B3, probe coproporphyrin I (CP-I), 0.1 µM, OATP1B3 (CP-I), 1000 µM, read-out: % inhibition at the highest concentration tested) was 23%. In addition, the “[I]2/IC50 ratio (G-value)” value at BCRP is reported as 104; at BCRP (listed as ritlecitinib), ~ 100.

The IC50 is the concentration needed to halve the response being measured. Read a low IC50 as inhibition by little substance.
